We go through 87 compounds from a melting point compilation (Tetko et al.; mined from patent text by program, amines drawn as free bases though some values may be those of a salt).

Each structure is given as a SMILES string. Residues, ends and D or L forms follow the SMILES beside them. *: point of attachment. Tos = Cc1ccc(S(=O)(=O)*)cc1

Usually melting point stands for the temperature, or range, at which the solid turns liquid. For the compound `CC(C)OC(=O)c1ncn2c1cnc1ccccc12`, the melting point was 205 to 206 °C. Regarding `CON(C)C(=O)c1nc(C(C)(C)C)c(O)c(C(C)(C)C)n1`, the melting point lay within 137 to 138 °C. In the case of `CC1c2ccccc2CC(=O)Cc2ccccc21`, the melting point was in the range of 152 to 155 °C. Compound `Nc1cc(I)c(I)cc1[N+](=O)[O-]` had a melting point of 196 to 197 °C. For `COc1ccc(C(=O)NCCOc2cccc3c2OCCO3)c(OC)c1OC`, the melting point came out at 128 °C. As to `O=C(/C=C/c1ccc(O)cc1)CC(=O)/C=C/c1ccc(O)cc1Cl`, the melting point was in the range of 131 to 138 °C. In turn, `COc1c(C)c2c(c(O)c1C/C=C(/Cl)CCC(=O)O)C(=O)OC2` came in with a melting point of 135 to 137 °C. In the case of `Nc1cccc(C#Cc2ccc(OC3CN4CCC3CC4)nn2)c1` (configuration not stated), the melting point was 152 to 158 °C. `CS(=O)(=O)c1ccc(-c2nc(C(F)(F)F)nc(NN)c2-c2ccc(F)cc2)cc1` yielded a melting point of 286 to 290 °C.

`COC(=S)NCc1cn(-c2cc(F)c(N3CCC(=O)CC3)c(F)c2)nn1` showed a melting point of 175 to 176 °C. `O=c1c2c(Cc3ccc(C(F)(F)F)cc3)n[nH]c2c2cccnc2n1-c1cccc(C(F)(F)F)c1` registered a melting point of 145 to 148 °C.

The compound `CCCCOc1ccc(S(=O)(=O)C2(C(=O)OCC)CCN(Cc3ccc(F)cc3)CC2)cc1` came in with a melting point of 114 °C. The figure for `Cc1cc2oc(=O)c(NC(=O)Nc3ccc(Cl)cc3)c(-c3ccccc3C)c2cc1C` is 234 to 236 °C; for `N#Cc1cccc(C(=O)Nc2c(Cl)cncc2Cl)c1` it is 242 to 244 °C; for `Cc1ccc(C(=C2CN(C(c3ccccc3)c3ccccc3)C2)S(C)(=O)=O)cc1` it is 210 °C. `CC(=O)Nc1onc(-c2ccccc2)c1Cl` showed a melting point of 141 to 142 °C. `CN1C(=O)c2ccccc2C(C(=O)O)C1c1ccc(OCc2ccccc2)c(OCc2ccccc2)c1` (configuration not stated) returned a melting point of 170 to 172 °C. Turning to `O=C(O)c1ccc2c(=O)c3ccccc3ccc2c1`, the melting point was 261 to 262 °C.

In the case of `CNS(=O)(=O)c1ccc(C2=C(c3cccc(F)c3)C(=O)C(C)(C)O2)cc1`, the melting point lay within 176 to 177 °C. On to `CC(C)c1ccc2c(c1)c(SCc1ccccc1)c(CC(C)(C)C(=O)O)n2Cc1ccc(Cl)cc1`, for which the melting point was 135 to 137 °C. With `N#Cc1cc(-c2ccc(Cl)cc2Cl)c[nH]c1=O`, the melting point was above 260 °C. `Cc1ncccc1CN1CCC(=C2c3ccc(Cl)cc3CCc3cccnc32)CC1` had a melting point of 81.4 to 87.2 °C. For the compound `CC1Cc2cc3c(cc2C(C=Cc2cccc(Cl)c2)=NN1)OCO3` (configuration not stated), the melting point was in the range of 114 to 117 °C. With `CCOC(=O)C=Cc1ccc(NC(=O)OC(C)(C)C)cc1`, the melting point lay in the range of 105 to 109 °C.

As for `Cc1ccc2nc(NCCCO)ccc2c1NC(=O)CC12CC3CC(CC(C3)C1)C2`, the melting point is 168 to 174 °C. The compound `O=C(O)COc1cccc(COC(=O)N(c2ccccc2)c2ccccc2)c1` yielded a melting point of 142 to 144 °C. As for `CCOC(=O)CNC(=O)c1nc2ccc(NCCCN3CCC(OC(c4ccccc4)c4ccccc4)CC3)nn2c1Cl`, the melting point lay in the range of 178 to 180 °C. `NC(=O)Cc1cc(Oc2ccc3c(ccn3C(=O)Nc3ccc(CN4CCOCC4)c(C(F)(F)F)c3)c2)ncn1`: the melting point was in the range of 219 to 221 °C. The compound `CC(C)(C)c1ccc(C(=O)NP(N)(N)=O)cc1` registered a melting point of 232 °C. The same measure for `Cc1nc(NC2CCCC2O)c2ncn(C3OC(CO)C(O)C3O)c2n1` (configuration not stated): 188 to 192 °C; for `O=[N+]([O-])c1ccc(C=Cc2ccc(Cl)c(Cl)c2)cc1O`: 105 to 106 °C; for `CC1SC(=O)NN=C1c1ccc2c(c1)C(C)(C)C(=O)N2C(=O)c1ccccc1` (configuration not stated): 200 °C. In turn, `CN(CCOc1ccc(CCCN2C(=O)COC2=O)cc1F)c1ccccn1` had a melting point of 124 to 125 °C. The compound `O=c1c2cc(I)ccc2nc(Cl)n1-c1ccc(Cl)cc1` registered a melting point of 178 to 180 °C. The figure for `Cc1ccc(C=Cc2ccccc2)cc1` is 117 °C; for `CCCCCCCCOC(=O)n1c(-c2cscn2)nc2ccccc21` it is 66 to 67.5 °C. The same measure for `CC(C)n1cc(Cc2cc3cccc(-c4cccc(C(=O)NCCO)c4)c3s2)ccc1=O`: 178 to 183 °C; for `CCCCN1C(=O)c2ccc(O)cc2C1=O`: 126 to 127 °C. On to `Cc1csc(NCCN2CCC(Nc3nc4ccccc4n3Cc3ccc(F)cc3)CC2)n1`, for which the melting point was determined as 184 °C. The compound `Cc1cc(Cl)c(C(=O)O)c(Cl)c1` registered a melting point of 139 to 145 °C. `Nc1sc(-c2ccccc2)c(CN2CCCCC2)c1C(=O)c1ccc(Cl)cc1` displayed a melting point of 185 to 187 °C. The compound `COC(=O)C1CCC2C3CC(O)C4(O)CC(O)CCC4(C)C3CCC12C` (configuration not stated) had a melting point of 266 to 268 °C. `CNC(=O)N(O)C(C)c1ccc(C)c(Br)c1` (configuration not stated): the melting point was 107 to 108 °C.

The compound `O=c1[nH]ncc2[nH]c(-c3ccc(OC(F)F)c(OCC4CC4)c3)cc12` returned a melting point of 294 to 295 °C. Compound `Cc1ccc(NC(=O)c2ccc(C(=O)Nc3ccccc3NC(=O)OC(C)(C)C)s2)cc1Nc1nccc(-c2cccnc2)n1` registered a melting point of 206 to 208 °C. `CC(C)c1cc(C(=O)Nc2cccc(C(=O)O)c2)oc1C(C)C`: the melting point fell in the range of 244 to 245 °C.

`COc1ccc(NC(C)=O)cc1NC(=O)NC(=O)c1cc(F)c(F)cc1Cl` gave a melting point of 225 to 228 °C. The compound `CCOC(=O)c1ccccc1Sc1ccn(C(=O)N(CC)CC)n1` showed a melting point of 65 to 67 °C. Compound `COc1cccc(CN2CCC3(CC2)CSC2=C(O3)c3ccccc3C(=O)C2=O)c1` returned a melting point of 129 to 131 °C. As to `C=CCC(O)(Cn1cncn1)c1ccc(Cl)cc1Cl` (configuration not stated), the melting point came to 101 °C. Compound `CC(=O)c1ccc(Oc2ccc([N+](=O)[O-])cc2C#N)cc1` returned a melting point of 135 to 136 °C. Compound `CN1CC(CCN2CCN(c3ccc(Cl)c(Cl)c3)CC2)OC1=O` (configuration not stated) yielded a melting point of 89 to 91 °C. With `Cc1cc([N+](=O)[O-])ccc1N1CCOCC1=O`, the melting point lay within 113 to 114 °C.

The compound `COC(=O)C(C)(C)Cc1ccc(-c2ccc(CC(C)(C)C(=O)OC)cc2)cc1` returned a melting point of 68 to 70 °C. The compound `CCOCc1nc2c(N)nc3cc(-c4ccc(F)nc4)cnc3c2n1CC(C)(C)F` returned a melting point of 198 to 199 °C.

As for `Cc1cc(N)cc(C)c1Oc1ccc(O)c(Cc2ccc(F)cc2)c1`, the melting point was 179 to 182 °C. The figure for `CC(C)NC(=O)Oc1ccccc1` is 81 to 82 °C; for `O=[N+]([O-])c1ccc(OCCN2CC=C(c3ccc(F)cc3)CC2)cc1` it is 104 to 107 °C; for `CCS(=O)(=O)c1ccc(F)c([N+](=O)[O-])c1` it is 128 to 131 °C. In turn, `Cc1nc(OC(C)C)nc(C)c1N1CCCn2c1nc1c(Cl)ccc(C(OC(F)F)C(F)(F)F)c12` (configuration not stated) registered a melting point of 227 to 230 °C.

`Cc1ccc(S(=O)(=O)N[C@@H](CCC(=O)O)C(=O)N[C@@H](Cc2ccc(O)cc2)C(=O)O)cc1` (Tos-Glu-Tyr-OH) displayed a melting point of 173 to 175 °C.

In turn, `CC1Sc2nccn2C1(C)C(O)C=Cc1ccco1` (configuration not stated) registered a melting point of 149 to 150 °C. The compound `CCN(CC)C(=CC(=O)OC)N1C(=O)C(=[N+]=[N-])c2ccccc21` showed a melting point of 175 to 177 °C.

Compound `C=CC[C@@H](C(=O)N[C@H](C(=O)N[C@H](C)c1ccccc1)C(C)(C)C)[C@H](OCC)C(=O)OC` yielded a melting point of 131 to 134 °C. For `Cc1cc(=O)[nH]nc1-c1ccc2c(c1)CC1(CCN(C3CCC3)CC1)O2`, the melting point fell in the range of 243 to 245 °C.

The compound `CN(C)CC(=O)Nc1c(C(=O)c2ccccc2)[nH]c2cc(Cl)ccc12` came in with a melting point of 175 to 176 °C.

Turning to `O=C(O)c1cc(OCCCOc2cccc(-c3ccccc3)c2)cc(OCCCOc2cccc(-c3ccccc3)c2)c1`, the melting point fell in the range of 65 to 69 °C. In turn, `COC(=O)CC1Oc2ccccc2NC1=O` (configuration not stated) showed a melting point of 140 °C. The figure for `O=C(O)c1cccc(-c2nc(=O)c3ccccc3s2)n1` is 260 °C. The same measure for `CC1CCc2c(N3CCN(S(=O)(=O)C(F)(F)F)CC3)c(Cl)cc3c(=O)c(C(=O)O)cn1c23` (configuration not stated): 232 to 235 °C; for `C=CC(=O)NC(Cc1ccccc1)C(=O)O` (configuration not stated): 136 to 138 °C. Take `COc1ccc(-c2coc3cc(OC)cc(OC)c3c2=O)c(OC)c1`: the melting point lay in the range of 202 to 204 °C. The compound `O=C(NCc1cccnc1)c1ccc2n1Cc1ccccc1N(C(=O)c1ccc(-c3ccccc3C=NO)cc1)C2` displayed a melting point of 165 to 167 °C. The same measure for `COC(=O)c1c(C)c(N=O)c2ccccn12`: 131 to 132 °C. The figure for `O=C(O)c1cc(-c2ccccc2)c(=O)n2c1-c1sccc1C2` is above 300 °C; for `N#CCC(=O)Nc1cc(N)ccc1[N+](=O)[O-]` it is 218 to 220 °C; for `O=C(C(=C1NCCCS1)[N+](=O)[O-])c1ccc([N+](=O)[O-])cc1` it is 158 to 160 °C. `COc1cc2c(Cl)c(C#N)cnc2cc1F` came in with a melting point of 160 to 162 °C. The figure for `CN(C)c1ccc([N+](=O)[O-])c(CO)c1` is 138 to 139 °C. Consider `CCOC(=O)c1c[nH]c2nc(Nc3ccc(C)c(Cl)c3)nn2c1=O`, for which the melting point is above 340 °C. The compound `Cc1cc2c(s1)Nc1ccccc1N=C2N1CCN(C)[C@@H](COCc2ccccc2)C1` gave a melting point of 55 to 65 °C. As to `O=C(Cn1nnc2ccccc21)Nc1ccc(-n2nc(C(F)(F)F)cc2C2CC2)nc1`, the melting point lay in the range of 189 to 192 °C. Compound `O=C(c1ccccc1)c1cc(Cl)ccc1C#CCN1C(=O)c2ccccc2C1=O` gave a melting point of 130 to 133 °C.

On to `CC1(C)CCC(C)(C)c2cc(CCCSN3C=CC=NC3)c(/C=C/c3ccc(C(=O)O)cc3)cc21`, for which the melting point fell in the range of 177 to 178 °C. The same measure for `CCC(C)Nc1c([N+](=O)[O-])cc(C(F)(F)F)c(C)c1[N+](=O)[O-]` (configuration not stated): 38 to 39 °C. `O=[N+]([O-])c1ccc(Oc2ccc(O)cc2)cc1` had a melting point of 173 to 174 °C.

For `O=C1NCCc2c[nH]c3cccc1c23`, the melting point was found to be 234 °C.
